Tested on: pdr5 ypt1^ts cells
Test: microbe, parasite or virus in culture
Type: cell-based, yeast
Details: 37° C.; for minimal effective concentration: Saccharomyces cerevisiae, lowest concentration tested giving growth above the 0 μM background, read-out: ypt1-ts MRC (minimal rescue concentration); for minimal effective concentration / optical density, ypt1-ts, 0.39 / optical density, ypt1-ts, 0.78 / optical density, ypt1-ts, 1.56 / optical density, ypt1-ts, 3.13 / optical density, ypt1-ts, 6.25 / optical density, ypt1-ts, 12.5 / optical density, ypt1-ts, 25: Table 2; for optical density, ypt1-ts, 0.39: 0.39 μM compound; for optical density, ypt1-ts, 0.39 / optical density, ypt1-ts, 0.78 / optical density, ypt1-ts, 1.56 / optical density, ypt1-ts, 3.13 / optical density, ypt1-ts, 6.25 / optical density, ypt1-ts, 12.5 / optical density, ypt1-ts, 25: background (0 μM) 0.058; for optical density, ypt1-ts, 0.78: 0.78 μM compound; for optical density, ypt1-ts, 1.56: 1.56 μM compound; for optical density, ypt1-ts, 3.13: 3.13 μM compound; for optical density, ypt1-ts, 6.25: 6.25 μM compound; for optical density, ypt1-ts, 12.5: 12.5 μM compound; for optical density, ypt1-ts, 25: 25 μM compound; for optical density, 3.13 uM / optical density, 12.5 uM / optical density, 50 uM: Table 3, background (0 uM) 0.077; for optical density, 3.13 uM: 3.13 uM compound; for optical density, 12.5 uM: 12.5 uM compound; for optical density, 50 uM: 50 uM compound
Description: The activity of the compounds as modulators of protein trafficking may be measured in the assays described herein that evaluate the ability of a compound to rescue an impairment in protein trafficking. For example, the yeast mutant cell line ypt1^ts can be used to identify compounds that rescue cells from the lethal phenotype of a mutant YPT1 allele (see, e.g., Examples and Schmitt et al. (1988) Cell 53:635-47). The activity may be measured, for example, in a whole yeast cell assay using 384-well screening protocol and an optical density measurement.
The yeast mutant cell line ypt1^ts suppresses, in a temperature dependent fashion, the dominant-lethal phenotype of a mutant YPT1 allele (Schmitt et al. (1988) Cell 53:635-47). ypt1^ts cells grow normally at temperatures up to 30° C., but are growth arrested at 37° C. (Id.).
A library of compounds (“The Spectrum Collection”) obtained from Microsource Discovery Systems, Inc. (Gaylordsville, Conn.) was screened to assess the ability of individual compounds to restore growth of ypt1^ts cells. Screening was carried out using ypt1^ts cells containing a mutation in the pdr5 gene (resulting in inactivation of a membrane efflux pump). The effect of the compounds was measured in pdr5 ypt1^ts cells cultured at 37° C.

SMILES	minimal effective concentration	optical density, ypt1-ts, 0.39	optical density, ypt1-ts, 0.78	optical density, ypt1-ts, 1.56	optical density, ypt1-ts, 3.13	optical density, ypt1-ts, 6.25	optical density, ypt1-ts, 12.5	optical density, ypt1-ts, 25	optical density, 3.13 uM	optical density, 12.5 uM	optical density, 50 uM
CC(=O)c1cc(CC=C(C)C)c(O)c(CC=C(C)C)c1	25 µM	0.085	0.077	0.082	0.108	0.096	0.112	0.195			
COc1ccc2c(c1)OCC(Cc1ccc(OC)c(O)c1)C2=O (centres unmarked)	12.5 µM	0.099	0.068	0.085	0.101	0.125	0.319	0.62			
O=C(/C=C(\O)c1ccccc1)c1ccccc1O [2',beta- DIHYDROXYCHALCONE]	12.5 µM	0.083	0.072	0.076	0.096	0.124	0.31	0.551			
CCOc1ccc(C(=O)c2ccc(O)c(O)c2O)cc1 [2,3,4-TRIHYDROXY-4'- ETHOX[…]]	12.5 µM	0.114	0.074	0.081	0.103	0.1	0.169	0.365			
COC(=O)CCCOc1ccc(Cl)cc1Cl [2,4-DICHLORO- PHENOXY- BUTYRIC ACID, METHYL ESTER]									0.159	0.255	0.221
CCOC(=O)C1(O)Oc2cc(OC)cc(OC)c2C(=O)C1c1ccccc1 (centres unmarked) [2-ETHOXY- CARBONYL-2- HYDROXY-5,7- DIMETHOXY- ISOFLAVANONE]									0.091	0.134	0.468
O=c1c2ccccc2oc2ccc(O)cc12 [2-HYDROXY- XANTHONE]									0.107	0.257	0.571
COc1cccc(/C=C/C(=O)O)c1C(C)C [2-ISOPROPYL-3- METHOXYCINNAMIC ACID]	12.5 µM	0.097	0.079	0.086	0.111	0.123	0.184	0.397			
COc1ccc2oc3ccccc3c(=O)c2c1 [2-METHOXYXANTHONE]		0.093	0.069	0.083	0.094	0.108	0.128	0.221			
Cc1[nH]c2ccccc2c1CN(C)C [2-METHYL GRAMINE]									0.084	0.106	0.295
CCCc1occc(=O)c1/C=C/O [2-PROPYL-3- HYDRO[…]-4-ONE]	25 µM	0.091	0.079	0.083	0.092	0.088	0.104	0.126			
c1ccc2c(Cc3c[nH]c4ccccc34)c[nH]c2c1 [3,3'- DIINDOLYLMETHANE]	3.13 µM	0.205	0.097	0.118	0.164	0.154	0.263	0.035			
CCOc1cccc(C(=O)c2ccc(O)c(O)c2O)c1 [3,4-DIDESMETHYL-5- DESHYDROXY-3'- ETHOXYSCLEROIN]	6.25 µM	0.094	0.075	0.091	0.108	0.143	0.185	0.396			
O=c1oc2ccccc2cc1O [3- HYDROXY- COUMARIN]									0.083	0.109	0.299
COC(=O)C[C@H]1C(C)(C)[C@@H](O)[C@@H]2CC3=C4C=C(OC)O[C@@H](c5ccoc5)[C@]4(C)CCC3[C@]1(C)C2=O (stereo partly drawn) [3-DEOXO-3beta-HYDRO[…] 16-ENOL ETHER]	3.13 µM	0.102	0.077	0.091	0.141	0.219	0.583	0.625			
C=C1[C@H]2CC[C@@]3(C)[C@H](c4ccoc4)OC(=O)C[C@]13O[C@H]1C[C@H](O)C(C)(C)[C@H](CC(=O)OC)[C@]12C [3-DEOXY-3beta- HYDROXY- […] METHYL ESTER]									0.384	0.641	0.621
COc1ccc(C(=O)c2ccccc2)c(O)c1O [3-DESMETHYL- 5-DES- HYDROXY- SCLEROIN]									0.11	0.149	0.556
C[C@]12CC[C@@H](O)C[C@H]1CCc1ccccc12 [3alpha- HYDROXY-4,4- BISNOR- 8,11,13- PODO- […]]									0.074	0.104	0.408
CC(=O)O[C@@H]1CC2C(C)(C)[C@H](O)CC[C@]2(C)C2CC[C@@]3(C)[C@H](c4ccoc4)OC(=O)C4OC43[C@@]21C (stereo partly drawn) [3alpha- HYDROXY- DEOXO- DIHYDRO- GEDUNIN]									0.137	0.25	0.146
C=C1[C@H]2CC[C@@]3(C)[C@H](c4ccoc4)OC(=O)C[C@]13O[C@H]1C[C@@H](O)C(C)(C)[C@H](CC(=O)OC)[C@]12C [3alpha-HYDROXY-3- DEOXY[…] METHYL ESTER2]	3.13 µM	0.169	0.078	0.093	0.144	0.381	0.566	0.611			
C=C1C2CC[C@@]3(C)[C@H](c4ccoc4)OC(=O)C[C@]13O[C@H]1C[C@H](OC(C)=O)C(C)(C)[C@H](CC(=O)OC)[C@@]21C [3beta- ACETO[…] ACID, METHYL ESTER]	1.56 µM	0.129	0.096	0.133	0.374	0.538	0.571	0.553			
O=C(/C=C/c1ccccc1)c1ccc(O)cc1 [4'- HYDROXYCHALCONE]	12.5 µM	0.088	0.073	0.079	0.093	0.1	0.329	0.552			
COc1ccc(-c2cc(=O)c3ccccc3o2)cc1 [4′-METHOXYFLAVONE]	1.56 µM	0.111	0.077	0.136	0.474	0.567	0.556	0.557			
COc1ccccc1-c1cc(=O)c2c(OC)cccc2o1 [5,2′- DIMETHOXY- FLAVONE]									0.088	0.256	0.383
C=C1CCC2C(CC2(C)C)C(=C)CC/C1=N/O (centres unmarked) [5- HYDROXYIMINOISOC ARYOPHYLLENE]	12.5 µM	0.096	0.077	0.087	0.108	0.117	0.131	0.153			

Source: patent US20100305068A1, “COMPOUNDS AND METHODS FOR MODULATING PROTEIN TRAFFICKING” (priority 2006, published 2010)
